Test results from PMC7413254 (Nature Communications, 2020).
Where two headings read alike, the source gives them in different places.

Columns and labels:
[1] = target: T1, PfCRT^3D7 in C2^GC03 parasites (Plasmodium falciparum, UniProt Q8IBZ9); experiment: P. falciparum H+-efflux assay (rate of DV alkalinisation after concanamycin A); assay type: cell-based; details: C2GC03; for Effect on rate of DV alkalinisation / H+ leak (in words): test solute 10 μM
T1 construct: PfCRT also functions as a peptide transporter within its native environment of the DV membrane; expressed in transfected cells; host or cells: P. falciparum pfcrt transfectant line C2^GC03 (saponin-isolated trophozoites)
T1 sequence (Q8IBZ9 1-424): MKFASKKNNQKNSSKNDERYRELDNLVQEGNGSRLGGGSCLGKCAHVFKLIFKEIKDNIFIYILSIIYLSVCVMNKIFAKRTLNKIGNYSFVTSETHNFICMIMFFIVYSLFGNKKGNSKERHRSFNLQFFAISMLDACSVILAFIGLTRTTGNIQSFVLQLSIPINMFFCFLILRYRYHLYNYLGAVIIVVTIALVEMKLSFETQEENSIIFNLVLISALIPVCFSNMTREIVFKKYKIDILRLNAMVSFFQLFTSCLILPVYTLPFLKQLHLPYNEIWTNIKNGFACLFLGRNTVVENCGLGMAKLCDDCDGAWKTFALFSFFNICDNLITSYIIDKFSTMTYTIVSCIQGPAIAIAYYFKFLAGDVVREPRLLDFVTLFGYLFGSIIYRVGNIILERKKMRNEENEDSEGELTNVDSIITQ

PfCRT^3D7 = PfCRT^3D7 (Plasmodium falciparum, UniProt Q8IBZ9); experiment: cell-based; details: for Trans effect on [3H]VF-6 transport via PfCRT (in words): all three PfCRT isoforms (3D7, Ecu1110, Dd2); for IC50: mean ± SEM, n = 5, SEM
Protocol: (§1) The characterisation of [^3H]VF-6 transport via 23 different field and laboratory-derived isoforms of PfCRT was undertaken with oocytes two days post-cRNA-injection (Figs. 3a–j, 4; Supplementary Fig. 2). The oocytes were injected with 25 nL of ND96 buffer (pH 5.5) supplemented with [^3H]VF-6 and unlabelled VF-6 to achieve estimated intracellular concentrations of 1.4 and 200 μM, respectively. Ten oocytes that had resealed at the injection site were transferred to a 5 mL polystyrene round bottom tube (In Vitro Technologies) and washed with 3.5 mL of ND96 buffer before being transferred to separate wells of a white 96-well plate (PerkinElmer). This treatment served to establish the amount of radioactivity within the oocytes immediately prior to the commencement of the transport assay. Another 10 resealed oocytes were transferred to a 5 mL tube and washed with 3.5 mL of ND96 buffer. […] The assay was terminated by removing the reaction buffer with a pipette and washing the oocytes twice with 3.5 mL of ice-cold ND96 buffer. Each oocyte was transferred to a separate well of a white 96-well plate. The oocytes were lysed by the addition of 20 μL of 10% (w/v) SDS and overnight incubation at room temperature. The lysed oocyte was then combined with 150 μL of MicroScint-40 microscintillant (PerkinElmer), the plate covered with a TopSeal-A (PerkinElmer), and the radioactivity measured with a MicroBeta^2 microplate liquid scintillation analyser (PerkinElmer). VF-6 transport was calculated by subtracting the amount of radioactivity (measured in counts per minute) present within the oocytes at the end of the incubation from that measured in the oocytes sampled immediately before the commencement of the assay. The pH-dependence of transport (Fig. 3c) was determined by injecting the oocytes with [^3H]VF-6 suspended in 25 nL ND96 buffer adjusted to pH 5.0, 5.5, 6.0 or 7.0, which corresponded to the injection of 2.5–250 fmol of H^+. The dependence of [^3H]VF-6 transport on Na^+ or Cl^− was examined by injecting the oocytes with [^3H]VF-6 suspended in the control ND96 buffer (pH 5.5) or a version of this buffer that lacked either Na^+ or Cl^− (Supplementary Fig. 2). […] The dependence of peptide transport on Ca^2+ was determined by injecting the oocytes with [^3H]VF-6 suspended in ND96 buffers that contained different concentrations of Ca^2+ (0–5 mM; Supplementary Fig. 2). […] The dependence of PfCRT-mediated transport on the membrane potential was examined by using (1) Na^+ ionophore III in conjunction with the Na^+ gradients listed in Supplementary Data 7 and (2) Cl^− ionophore III in conjunction with the Cl^− gradients listed in Supplementary Data 7 to clamp the membrane potential of the oocyte from −80 to +80 mV. […] The kinetic parameters for VF-6 transport via different isoforms of PfCRT (Figs. 3e and 4a) were determined in SigmaPlot Windows Version 11.0 by a least-squares fit of the Michaelis–Menten equation to the data.
(§2) A subset of assays measured the ability of solutes known to interact with PfCRT to either cis-inhibit, trans-inhibit or trans-stimulate [^3H]VF-6 transport. These experiments involved adding these solutes to either the cis- or trans-side of the membrane relative to [^3H]VF-6. […] At least five independent experiments were performed (on different days and using oocytes from different frogs), and within each experiment measurements were made from ten oocytes per treatment.

PfCRT^Ecu1110 = PfCRT^Ecu1110 (Plasmodium falciparum, UniProt Q9N623, A220S/I356L/K76T/N326D); experiment: cell-based; details: mean ± SEM, n = 5, SEM
PfCRT^Ecu1110, sequence (Q9N623 whole entry A220S/I356L/K76T/N326D): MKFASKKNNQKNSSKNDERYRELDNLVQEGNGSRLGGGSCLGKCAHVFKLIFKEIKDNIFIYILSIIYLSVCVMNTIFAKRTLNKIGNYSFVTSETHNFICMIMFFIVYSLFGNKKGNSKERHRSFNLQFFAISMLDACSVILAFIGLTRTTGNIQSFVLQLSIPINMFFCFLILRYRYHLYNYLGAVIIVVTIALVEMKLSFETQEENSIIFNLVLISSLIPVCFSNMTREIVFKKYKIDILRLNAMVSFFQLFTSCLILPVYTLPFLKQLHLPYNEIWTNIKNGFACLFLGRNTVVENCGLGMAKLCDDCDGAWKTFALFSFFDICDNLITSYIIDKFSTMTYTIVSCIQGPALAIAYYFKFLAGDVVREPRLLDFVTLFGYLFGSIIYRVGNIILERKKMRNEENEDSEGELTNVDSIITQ
Protocol: as §1, §2

PfCRT^Dd2 = PfCRT^Dd2 (Plasmodium falciparum, UniProt Q9N623, A220S/I356T/K76T/M74I/N326S/N75E/Q271E/R371I); experiment: cell-based; details: mean ± SEM, n = 5, SEM
PfCRT^Dd2, sequence (Q9N623 whole entry A220S/I356T/K76T/M74I/N326S/N75E/Q271E/R371I): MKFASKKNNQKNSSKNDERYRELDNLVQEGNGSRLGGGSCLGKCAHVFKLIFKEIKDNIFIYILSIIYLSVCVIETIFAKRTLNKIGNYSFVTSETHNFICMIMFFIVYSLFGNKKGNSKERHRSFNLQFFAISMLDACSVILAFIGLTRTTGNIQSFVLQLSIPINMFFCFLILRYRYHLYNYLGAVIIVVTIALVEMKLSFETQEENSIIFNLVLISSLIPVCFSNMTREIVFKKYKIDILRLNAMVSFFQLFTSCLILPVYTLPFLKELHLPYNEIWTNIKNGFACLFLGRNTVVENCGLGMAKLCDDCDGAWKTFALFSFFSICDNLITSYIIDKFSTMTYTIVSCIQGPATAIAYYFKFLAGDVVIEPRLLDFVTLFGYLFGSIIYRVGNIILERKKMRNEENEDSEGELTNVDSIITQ
Protocol: as §1, §2

PfCRT = experiment: Influx of VF-6 via PfCRT into the oocyte, solutes tested as potential co-substrates; assay type: cell-based, Plasmodium falciparum; parameters: key: X: Compounds that have been tested as potential co-substrates but are not required for influx of VF-6 via PfCRT into the oocyte; details: X marks the solute
[2] = Cis-inhibition IC50 of [3H]VF-6 transport, PfCRTEcu1110, drug on same side as [3H]VF-6
[3] = Cis-inhibition IC50 of [3H]VF-6 transport, PfCRTDd2, drug on same side as [3H]VF-6

Row | SMILES | Maximum rate of peptide mimic-induced DV alkalinization ([1]; mean ± SEM, n = 5, SEM) [fluorescence ratio/s] | Effect on rate of DV alkalinisation / H+ leak (in words) [1] | Trans effect on [3H]VF-6 transport via PfCRT (in words) (PfCRT^3D7) | Trans effect on [3H]VF-6 transport via PfCRT (in words) (PfCRT^3D7; listed as SQV) | IC50 (PfCRT^3D7; drug on same side as [3H]VF-6, read-out: Cis-inhibition IC50 of [3H]VF-6 transport, PfCRT3D7) [µM] | IC50 (PfCRT^Ecu1110; [2]) [µM] | IC50 (PfCRT^Dd2; [3]) [µM] | Compounds that have been tested as potential co-substrates but are not required for influx of VF-6 via PfCRT into the oocyte (PfCRT) | IC50 (PfCRT^3D7; Cis-inhibition IC50 of [3H]VF-6 transport, PfCRT3D7, drug on same side as [3H]VF-6) [µM] | IC50 (PfCRT^3D7; Trans-inhibition IC50 of [3H]VF-6 transport, PfCRT3D7, drug on opposite side to [3H]VF-6) [µM] | Extracellular concentration giving modest trans-stimulation of [3H]VF-6 transport (PfCRT^3D7; all three PfCRT isoforms) [µM] | IC50 (PfCRT^Ecu1110; Trans-inhibition IC50 of [3H]VF-6 transport, PfCRTEcu1110, drug on opposite side to [3H]VF-6) [µM] | IC50 (PfCRT^Dd2; Trans-inhibition IC50 of [3H]VF-6 transport, PfCRTDd2, drug on opposite side to [3H]VF-6) [µM]
1 | CC(C)(C)NC(=O)[C@@H]1C[C@@H]2CCCC[C@@H]2CN1C[C@@H](O)[C@H](Cc1ccccc1)NC(=O)[C@H](CC(N)=O)NC(=O)c1ccc2ccccc2n1 [Saquinavir, saquinavir, reference compound] | 0.039 ±0.002 | increased the rate of DV alkalinisation | trans-stimulated | Trans-stimulates | 50 ± 2.3 | 74 ± 3.9 | 89 ± 3.8 | – | – | – | – | – | –
2 | N[C@@H](Cc1c[nH]cn1)C(=O)O [L-histidine] | – | without effect | – | – | – | – | – | X | – | – | – | – | –
3 | CCN(CC)CCCC(C)Nc1ccnc2cc(Cl)ccc12 (centres unmarked) [CQ, chloroquine, reference compound] | – | decrease slightly | – | – | – | 72 ± 3.1 | 53 ± 2.8 | – | 110 ± 5.9 | 77 ± 5.2 | ≥ 500 | 62 ± 2.6 | 54 ± 3.6
